{
  "source": "ChEMBL document CHEMBL5465560",
  "about": "“Selectivity Literature for EUbOPEN Chemogenomic Library” (2024)",
  "key": {"[1]": {"biological_target": "Casein kinase I isoform epsilon (Homo sapiens, UniProt P49674)", "conditions": "at 10 µM"}, "[2]": {"biological_target": "Serine/threonine-protein kinase PAK 6 (Homo sapiens) (UniProt Q9NQU5)", "sequence (Q9NQU5 whole entry, looked up)": "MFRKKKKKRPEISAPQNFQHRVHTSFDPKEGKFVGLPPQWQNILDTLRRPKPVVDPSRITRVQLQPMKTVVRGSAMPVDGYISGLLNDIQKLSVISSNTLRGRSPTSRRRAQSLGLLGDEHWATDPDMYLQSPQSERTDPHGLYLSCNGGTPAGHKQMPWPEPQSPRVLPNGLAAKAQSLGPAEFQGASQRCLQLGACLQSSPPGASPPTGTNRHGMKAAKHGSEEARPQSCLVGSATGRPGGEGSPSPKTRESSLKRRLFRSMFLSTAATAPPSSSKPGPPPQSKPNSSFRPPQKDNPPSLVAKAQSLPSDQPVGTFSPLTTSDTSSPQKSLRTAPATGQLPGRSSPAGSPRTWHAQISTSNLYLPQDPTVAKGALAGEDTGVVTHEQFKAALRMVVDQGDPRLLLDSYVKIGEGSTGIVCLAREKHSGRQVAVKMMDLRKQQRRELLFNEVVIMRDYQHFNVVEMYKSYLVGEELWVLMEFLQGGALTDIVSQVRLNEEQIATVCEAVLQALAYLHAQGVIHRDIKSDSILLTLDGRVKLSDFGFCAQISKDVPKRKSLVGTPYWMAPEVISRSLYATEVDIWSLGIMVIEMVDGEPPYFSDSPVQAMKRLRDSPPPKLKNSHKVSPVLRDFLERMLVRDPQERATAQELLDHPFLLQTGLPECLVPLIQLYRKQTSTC", "conditions": "at 10 µM"}, "[3]": {"system": "Mast/stem cell growth factor receptor Kit (Homo sapiens), P10721 [D816H]", "sequence (P10721 whole entry D816H)": "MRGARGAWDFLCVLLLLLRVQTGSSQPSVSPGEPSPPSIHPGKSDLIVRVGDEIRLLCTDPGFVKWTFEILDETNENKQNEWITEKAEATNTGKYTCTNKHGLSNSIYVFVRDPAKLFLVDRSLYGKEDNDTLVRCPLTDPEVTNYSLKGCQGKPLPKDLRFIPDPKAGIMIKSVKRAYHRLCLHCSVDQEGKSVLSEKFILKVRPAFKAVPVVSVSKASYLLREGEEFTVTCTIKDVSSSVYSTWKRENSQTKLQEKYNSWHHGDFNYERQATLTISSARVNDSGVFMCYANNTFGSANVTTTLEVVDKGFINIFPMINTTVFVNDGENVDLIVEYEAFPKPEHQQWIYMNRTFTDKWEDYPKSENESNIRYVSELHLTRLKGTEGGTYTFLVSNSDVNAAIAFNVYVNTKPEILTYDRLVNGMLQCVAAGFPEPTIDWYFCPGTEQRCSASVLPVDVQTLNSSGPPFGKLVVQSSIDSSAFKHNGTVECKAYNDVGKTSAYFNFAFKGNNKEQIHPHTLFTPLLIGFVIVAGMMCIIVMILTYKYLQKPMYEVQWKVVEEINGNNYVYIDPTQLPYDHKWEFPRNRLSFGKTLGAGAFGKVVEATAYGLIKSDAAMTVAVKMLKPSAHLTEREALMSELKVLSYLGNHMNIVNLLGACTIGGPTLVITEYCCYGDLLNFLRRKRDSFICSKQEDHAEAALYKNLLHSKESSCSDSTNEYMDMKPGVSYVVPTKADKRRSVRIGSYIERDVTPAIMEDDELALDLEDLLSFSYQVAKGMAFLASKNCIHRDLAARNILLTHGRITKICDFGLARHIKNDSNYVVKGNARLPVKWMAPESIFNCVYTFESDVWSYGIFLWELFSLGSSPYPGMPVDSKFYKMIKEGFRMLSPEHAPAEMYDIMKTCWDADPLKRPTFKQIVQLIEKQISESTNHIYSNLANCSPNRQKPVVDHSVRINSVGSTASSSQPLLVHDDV", "assay": "(§1) Selectivity interaction (KinomeScan (DiscoverX)) EUB0000229b KIT", "conditions": "at 1 µM"}, "[4]": {"system": "Mast/stem cell growth factor receptor Kit (Homo sapiens), P10721 [L576P]", "sequence (P10721 whole entry L576P)": "as the sequence (P10721 whole entry D816H) above, with L576P, H816D counted along it", "assay": "as §1", "conditions": "at 1 µM"}, "[5]": {"system": "Mast/stem cell growth factor receptor Kit (Homo sapiens), P10721 [A829P]", "sequence (P10721 whole entry A829P)": "as the sequence (P10721 whole entry D816H) above, with H816D, A829P counted along it", "assay": "as §1", "conditions": "at 1 µM"}, "[6]": {"system": "Mast/stem cell growth factor receptor Kit (Homo sapiens), P10721 [D816V]", "sequence (P10721 whole entry D816V)": "as the sequence (P10721 whole entry D816H) above, with H816V counted along it", "assay": "as §1", "conditions": "at 1 µM"}, "[7]": {"system": "Mast/stem cell growth factor receptor Kit (Homo sapiens), P10721 [V559D]", "sequence (P10721 whole entry V559D)": "as the sequence (P10721 whole entry D816H) above, with V559D, H816D counted along it", "assay": "as §1", "conditions": "at 1 µM"}, "[8]": {"system": "Mast/stem cell growth factor receptor Kit (Homo sapiens), P10721 [V559D,V654A]", "sequence (P10721 whole entry V559D/V654A)": "as the sequence (P10721 whole entry D816H) above, with V559D, V654A, H816D counted along it", "assay": "as §1", "conditions": "at 1 µM"}, "[9]": {"biological_target": "Mast/stem cell growth factor receptor Kit (Homo sapiens, UniProt P10721)", "sequence (P10721 whole entry)": "as the sequence (P10721 whole entry D816H) above, with H816D counted along it", "assay": "as §1", "conditions": "at 10 µM"}, "[10]": {"biological_target": "Casein kinase II subunit alpha (Homo sapiens, UniProt P68400)", "assay": "Selectivity interaction (Upstate Kinase Profiler service (Millipore)) EUB0000056c CSNK2A1", "conditions": "at 1 µM"}, "[11]": {"biological_target": "T1, Protein kinase C zeta type (Homo sapiens) (UniProt Q05513)", "T1 sequence (whole entry)": "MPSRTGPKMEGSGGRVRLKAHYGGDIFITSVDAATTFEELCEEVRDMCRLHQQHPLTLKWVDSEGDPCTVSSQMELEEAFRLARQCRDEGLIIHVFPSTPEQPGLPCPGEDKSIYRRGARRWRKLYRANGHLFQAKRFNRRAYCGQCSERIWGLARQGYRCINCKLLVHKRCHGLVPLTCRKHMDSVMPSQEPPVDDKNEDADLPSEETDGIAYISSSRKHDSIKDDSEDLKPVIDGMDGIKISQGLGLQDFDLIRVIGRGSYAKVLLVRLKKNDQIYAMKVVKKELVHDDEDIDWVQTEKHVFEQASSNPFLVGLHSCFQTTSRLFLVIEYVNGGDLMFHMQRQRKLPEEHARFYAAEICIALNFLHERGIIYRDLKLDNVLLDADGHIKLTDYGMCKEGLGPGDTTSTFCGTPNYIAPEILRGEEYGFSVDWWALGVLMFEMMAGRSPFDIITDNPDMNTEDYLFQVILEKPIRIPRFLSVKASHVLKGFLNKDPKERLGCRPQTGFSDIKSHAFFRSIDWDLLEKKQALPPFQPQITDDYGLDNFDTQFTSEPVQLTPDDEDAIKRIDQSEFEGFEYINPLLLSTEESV", "assay": "Selectivity interaction (ProQinase) EUB0000171b PRKCZ"}, "[12]": {"biological_target": "Proto-oncogene tyrosine-protein kinase receptor Ret (Homo sapiens, UniProt P07949)", "assay": "Selectivity interaction (Millipore kinase profiler) EUB0000124b RET", "conditions": "at 10 µM"}, "[13]": {"biological_target": "T2, Aurora kinase A (Homo sapiens) (UniProt O14965)", "T2 sequence (whole entry)": "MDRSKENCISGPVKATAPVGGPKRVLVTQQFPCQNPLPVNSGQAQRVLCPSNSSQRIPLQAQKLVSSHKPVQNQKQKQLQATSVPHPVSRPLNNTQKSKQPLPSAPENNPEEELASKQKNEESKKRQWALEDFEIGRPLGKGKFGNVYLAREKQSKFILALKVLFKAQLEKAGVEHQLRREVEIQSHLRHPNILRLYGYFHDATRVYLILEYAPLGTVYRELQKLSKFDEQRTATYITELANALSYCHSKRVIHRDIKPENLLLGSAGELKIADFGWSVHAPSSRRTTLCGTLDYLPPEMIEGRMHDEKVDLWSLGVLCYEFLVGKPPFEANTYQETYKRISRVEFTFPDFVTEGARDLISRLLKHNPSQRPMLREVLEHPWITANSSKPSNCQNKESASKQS", "conditions": "at 10 µM"}, "[14]": {"biological_target": "Insulin receptor-related protein (Homo sapiens) (UniProt P14616)", "assay": "Selectivity interaction (KinomeScan (DiscoverX)) EUB0000607a INSRR", "conditions": "at 10 µM"}, "[15]": {"biological_target": "Vascular endothelial growth factor receptor 3 (Homo sapiens, UniProt P35916)", "sequence (P35916 whole entry)": "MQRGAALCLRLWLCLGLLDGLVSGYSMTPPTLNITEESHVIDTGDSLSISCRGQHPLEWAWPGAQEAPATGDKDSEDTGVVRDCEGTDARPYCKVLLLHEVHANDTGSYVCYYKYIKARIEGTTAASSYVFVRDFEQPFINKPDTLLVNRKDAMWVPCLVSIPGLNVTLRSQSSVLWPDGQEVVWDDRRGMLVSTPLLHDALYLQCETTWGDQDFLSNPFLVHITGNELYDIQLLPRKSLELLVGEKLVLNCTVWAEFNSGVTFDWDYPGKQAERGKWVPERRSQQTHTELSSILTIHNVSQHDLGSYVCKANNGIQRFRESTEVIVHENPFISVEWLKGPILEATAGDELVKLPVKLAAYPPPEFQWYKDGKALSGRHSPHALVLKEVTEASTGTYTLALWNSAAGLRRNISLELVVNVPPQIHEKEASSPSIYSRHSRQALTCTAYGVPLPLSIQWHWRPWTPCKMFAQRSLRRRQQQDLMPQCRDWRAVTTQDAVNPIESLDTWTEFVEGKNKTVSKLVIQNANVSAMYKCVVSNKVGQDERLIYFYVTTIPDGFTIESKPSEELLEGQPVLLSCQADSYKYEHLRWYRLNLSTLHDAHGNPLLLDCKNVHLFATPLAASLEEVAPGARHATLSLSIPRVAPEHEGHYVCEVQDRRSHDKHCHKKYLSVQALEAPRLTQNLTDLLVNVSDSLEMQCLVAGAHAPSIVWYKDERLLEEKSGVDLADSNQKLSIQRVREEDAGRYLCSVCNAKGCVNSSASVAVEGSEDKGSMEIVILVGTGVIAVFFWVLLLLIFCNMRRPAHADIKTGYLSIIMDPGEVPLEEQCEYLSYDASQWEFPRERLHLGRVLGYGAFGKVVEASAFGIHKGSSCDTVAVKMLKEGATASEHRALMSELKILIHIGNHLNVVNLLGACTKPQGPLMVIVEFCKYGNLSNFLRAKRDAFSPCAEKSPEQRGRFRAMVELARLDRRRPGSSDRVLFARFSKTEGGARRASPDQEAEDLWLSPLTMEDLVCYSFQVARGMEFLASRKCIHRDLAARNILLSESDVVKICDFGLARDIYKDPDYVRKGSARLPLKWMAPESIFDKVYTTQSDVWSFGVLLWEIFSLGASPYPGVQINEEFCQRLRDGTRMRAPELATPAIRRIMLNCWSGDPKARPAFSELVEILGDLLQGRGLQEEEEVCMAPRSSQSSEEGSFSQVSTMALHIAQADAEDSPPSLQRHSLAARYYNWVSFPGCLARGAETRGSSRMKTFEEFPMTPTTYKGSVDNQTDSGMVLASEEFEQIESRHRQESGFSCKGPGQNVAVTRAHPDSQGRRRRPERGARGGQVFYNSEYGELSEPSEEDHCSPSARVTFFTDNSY", "assay": "Selectivity interaction (KinomeScan (DiscoverX)) EUB0001049a FLT4", "conditions": "at 1 µM"}, "[16]": {"biological_target": "T3, Serine/threonine-protein kinase NLK (Homo sapiens) (UniProt Q9UBE8)", "T3 sequence (whole entry)": "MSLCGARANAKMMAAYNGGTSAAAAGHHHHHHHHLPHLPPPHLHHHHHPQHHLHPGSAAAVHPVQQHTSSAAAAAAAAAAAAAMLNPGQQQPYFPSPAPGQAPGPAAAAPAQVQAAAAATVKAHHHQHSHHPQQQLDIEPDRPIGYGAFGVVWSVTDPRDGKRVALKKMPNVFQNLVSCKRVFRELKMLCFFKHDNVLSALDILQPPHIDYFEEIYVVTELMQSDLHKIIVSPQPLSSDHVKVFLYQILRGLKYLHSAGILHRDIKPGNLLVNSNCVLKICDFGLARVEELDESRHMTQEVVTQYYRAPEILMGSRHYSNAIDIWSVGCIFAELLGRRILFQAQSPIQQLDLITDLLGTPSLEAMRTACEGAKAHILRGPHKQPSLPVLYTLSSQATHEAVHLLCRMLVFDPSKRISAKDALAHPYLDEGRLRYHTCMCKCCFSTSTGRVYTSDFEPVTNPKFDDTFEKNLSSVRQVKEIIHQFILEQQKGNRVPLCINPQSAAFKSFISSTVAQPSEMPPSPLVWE", "assay": "Selectivity interaction (KinomeScan (DiscoverX)) EUB0000695a NLK", "conditions": "at 100 nM"}, "[17]": {"system": "eIF-2-alpha kinase GCN2 (Homo sapiens), Q9P2K8 [S808G]", "sequence (Q9P2K8 whole entry S808G)": "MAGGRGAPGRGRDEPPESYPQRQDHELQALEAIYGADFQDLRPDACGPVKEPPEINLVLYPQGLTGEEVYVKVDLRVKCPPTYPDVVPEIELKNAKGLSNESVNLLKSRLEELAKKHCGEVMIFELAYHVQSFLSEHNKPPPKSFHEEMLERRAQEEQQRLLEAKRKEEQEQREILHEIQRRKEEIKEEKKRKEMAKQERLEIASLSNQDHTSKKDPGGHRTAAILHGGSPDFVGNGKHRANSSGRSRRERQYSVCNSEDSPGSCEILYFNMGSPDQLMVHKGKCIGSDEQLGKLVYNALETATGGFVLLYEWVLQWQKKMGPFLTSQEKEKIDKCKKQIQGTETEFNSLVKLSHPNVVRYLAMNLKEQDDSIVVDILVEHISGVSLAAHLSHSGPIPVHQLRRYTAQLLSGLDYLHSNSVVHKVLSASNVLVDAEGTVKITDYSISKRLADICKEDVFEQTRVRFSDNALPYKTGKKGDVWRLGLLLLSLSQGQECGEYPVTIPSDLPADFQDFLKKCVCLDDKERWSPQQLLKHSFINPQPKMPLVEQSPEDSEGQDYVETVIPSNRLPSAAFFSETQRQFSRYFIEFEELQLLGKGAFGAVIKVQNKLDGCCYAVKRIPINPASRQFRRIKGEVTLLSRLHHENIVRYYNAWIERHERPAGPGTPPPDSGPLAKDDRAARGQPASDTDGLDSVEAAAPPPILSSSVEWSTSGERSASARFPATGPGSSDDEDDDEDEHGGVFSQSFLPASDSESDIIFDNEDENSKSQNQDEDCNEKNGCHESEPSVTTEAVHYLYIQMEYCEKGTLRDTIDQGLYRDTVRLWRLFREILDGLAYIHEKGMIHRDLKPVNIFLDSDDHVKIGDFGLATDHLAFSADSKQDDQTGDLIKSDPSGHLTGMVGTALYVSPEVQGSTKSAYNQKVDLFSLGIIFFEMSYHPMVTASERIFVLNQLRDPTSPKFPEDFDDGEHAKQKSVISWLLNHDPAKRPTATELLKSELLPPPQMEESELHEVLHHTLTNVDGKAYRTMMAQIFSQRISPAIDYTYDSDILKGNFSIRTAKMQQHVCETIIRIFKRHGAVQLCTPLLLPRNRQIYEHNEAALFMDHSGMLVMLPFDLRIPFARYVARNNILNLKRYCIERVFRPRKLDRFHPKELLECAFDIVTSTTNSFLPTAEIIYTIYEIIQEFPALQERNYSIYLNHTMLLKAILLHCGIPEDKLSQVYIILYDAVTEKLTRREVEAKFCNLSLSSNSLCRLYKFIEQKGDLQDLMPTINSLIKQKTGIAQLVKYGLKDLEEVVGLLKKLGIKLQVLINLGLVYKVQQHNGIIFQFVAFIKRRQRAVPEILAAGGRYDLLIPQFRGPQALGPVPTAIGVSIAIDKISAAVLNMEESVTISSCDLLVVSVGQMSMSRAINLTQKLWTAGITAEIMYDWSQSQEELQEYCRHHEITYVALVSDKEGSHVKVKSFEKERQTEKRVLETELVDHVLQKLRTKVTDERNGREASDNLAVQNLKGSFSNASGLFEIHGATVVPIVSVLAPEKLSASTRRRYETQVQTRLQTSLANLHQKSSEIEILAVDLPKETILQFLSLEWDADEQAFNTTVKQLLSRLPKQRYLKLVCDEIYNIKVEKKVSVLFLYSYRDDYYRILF", "assay": "Selectivity interaction (KinomeScan (DiscoverX)) EUB0001619a EIF2AK4", "conditions": "at 1 µM"}},
  "data": [
    {"smiles": "CCN(CC)CCCCNc1ncc2cc(-c3cc(OC)cc(OC)c3)c(NC(=O)NC(C)(C)C)nc2n1", "values": [
      {"measurement": "% of control", "setting": "[1]", "value": 100, "unit": "%"},
      {"measurement": "% of control", "setting": "[2]", "value": 100, "unit": "%"}
    ]},
    {"smiles": "COc1cc(N(C)c2ccnc3ccc(C(F)(F)F)cc23)cc(OC)c1OC", "values": [
      {"measurement": "% binding", "setting": "[3]", "value": 79, "unit": "%"},
      {"measurement": "% binding", "setting": "[4]", "value": 100, "unit": "%"},
      {"measurement": "% binding", "setting": "[5]", "value": 72, "unit": "%"},
      {"measurement": "% binding", "setting": "[6]", "value": 95, "unit": "%"},
      {"measurement": "% binding", "setting": "[7]", "value": 95, "unit": "%"},
      {"measurement": "% binding", "setting": "[8]", "value": 100, "unit": "%"},
      {"measurement": "% binding", "setting": "[9]", "value": 84, "unit": "%"}
    ]},
    {"smiles": "Cc1ccc(-c2ccc3c(ccc4sc5c(c43)NC[C@@H](C)NC5=O)n2)cn1", "values": [
      {"measurement": "% of inhibition", "setting": "[10]", "value": 15, "unit": "%"}
    ]},
    {"smiles": "C=CC(=O)Nc1cccc(C(=O)Nc2ccc(Nc3cc(-c4[nH]c(SC)nc4C)ccn3)cc2)c1", "values": [
      {"measurement": "% of control", "setting": "[11]; at 1 µM", "value": 87, "unit": "%"},
      {"measurement": "% of control", "setting": "[11]; at 5 µM", "value": 86, "unit": "%"}
    ]},
    {"smiles": "CC(=O)Nc1cccc(-n2c(=O)n(C3CC3)c(=O)c3c(Nc4ccc(I)cc4F)n(C)c(=O)c(C)c32)c1", "values": [
      {"measurement": "% of control", "setting": "[12]", "value": 109, "unit": "%"}
    ]},
    {"smiles": "Cc1cc([C@@H](C)Nc2ccccc2C(=O)O)c2nc(N3CCOCC3)cc(=O)n2c1", "note": "[AZD-6482]", "values": [
      {"measurement": "% of control", "setting": "[13]", "value": 100, "unit": "%"}
    ]},
    {"smiles": "CNC(=O)Nc1ccc(-c2nc(N3CC4CCC(C3)O4)c3cnn(C4CCC5(CC4)OCCO5)c3n2)cc1", "values": [
      {"measurement": "% of control", "setting": "[14]", "value": 100, "unit": "%"}
    ]},
    {"smiles": "COc1cc(Nc2nc(C)cc(-c3cnn4nc(OC)ccc34)n2)cc(C(F)(F)F)c1", "values": [
      {"measurement": "% of control", "setting": "[15]", "value": 89, "unit": "%"}
    ]},
    {"smiles": "Cc1cc(F)c(C(=O)Nc2cccc(-c3nncn3C(C)C)n2)cc1-n1cnc(C2CC2)c1", "values": [
      {"measurement": "% of control", "setting": "[16]", "value": 96, "unit": "%"}
    ]},
    {"smiles": "N#Cc1cccc(-c2c[nH]c3ncnc(N4CCOCC4)c23)c1", "values": [
      {"measurement": "% of control", "setting": "[17]", "value": 100, "unit": "%"}
    ]}
  ]
}
